The values that follow come from ChEMBL document CHEMBL3870327, “Thioxylated cyclosporin A for studying protein-drug interactions” (Bioorg Med Chem Lett, 2016).

Assay [1] deals with T1, Peptidyl-prolyl cis-trans isomerase A (Homo sapiens, UniProt P62937). The assay is described as follows: Binding affinity to recombinant His-tagged Cyp18 (unknown origin) expressed in Escherichia coli BL21(DE3) assessed as inhibition of recombinant human His6-tagged calcineurin alpha phosphatase actvity using RII phosphopeptide as substrate by measuring amount of free phosphate at 10 uM preincubated for 20 mins followed by substrate addition measured after 30 mins in presence of human calmodulin by malachite green dye-based spectrophotometry relative to control.
Target sequence in this assay (P62937 whole entry, looked up): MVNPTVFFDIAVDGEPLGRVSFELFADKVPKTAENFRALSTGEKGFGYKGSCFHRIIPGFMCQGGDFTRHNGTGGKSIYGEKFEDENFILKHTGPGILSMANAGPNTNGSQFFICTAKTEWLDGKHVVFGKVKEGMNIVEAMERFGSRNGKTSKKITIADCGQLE

In assay [2] the target is T1, Peptidyl-prolyl cis-trans isomerase A. The assay is described as follows: Binding affinity to recombinant His-tagged Cyp18 (unknown origin) expressed in Escherichia coli BL21(DE3) by fluorescence analysis.
Target sequence in this assay (P62937 whole entry, looked up): as above
For assay [3] the target is unchanged. The assay is described as follows: Binding affinity to recombinant His-tagged Cyp18 (unknown origin) expressed in Escherichia coli BL21(DE3) assessed as blue shift by UV absorbance method.
Target sequence in this assay (P62937 whole entry, looked up): as above
For assay [4] the target is unchanged. As to the kind of experiment: Inhibition of recombinant His-tagged Cyp18 (unknown origin) expressed in Escherichia coli BL21(DE3) up to 1000 nM.
Target sequence in this assay (P62937 whole entry, looked up): as above
For assay [5] the target is unchanged. As to the kind of experiment: Binding affinity to recombinant His-tagged Cyp18 (unknown origin) expressed in Escherichia coli BL21(DE3) assessed as dissociation rate constant in presence of 20-fold excess of cyclosporin A by fluorescence assay.
Target sequence in this assay (P62937 whole entry, looked up): as above
Assay [6] has the same target. The assay is described as follows: Binding affinity to Cyp18 (unknown origin) assessed as association rate constant of fast phase by stopped flow method.
Target sequence in this assay (P62937 whole entry, looked up): as above
Assay [7] shares this target. As to the kind of experiment: Binding affinity to Cyp18 (unknown origin) by fluorescence assay.
Target sequence in this assay (P62937 whole entry): as the sequence (P62937 whole entry, looked up) above

Activity calls are given as the source filed them. No cut-off for these calls is given here. *1 amine or outer side, *2 acyl side, *3 side chain or, on linkers, in order; H or OH if unused. Where a SMILES comes first, the peptide text is derived from it. [ ]: non-standard residue; d: D form. X1 = CC(C)C[C@@H](C(=S)N[C@H](C(=O)[*:2])C(C)C)N(C)[*:1]; AlaΨ(CSNH)dAla = C[C@H](N[*:1])C(=S)N[C@H](C)C(=O)[*:2]; MeBmt = C/C=C/C[C@@H](C)[C@@H](O)[C@H](NC)C(=O)O; NMeL = CN[C@@H](CC(C)C)C(=O)O; NMeV = CN[C@H](C(=O)O)C(C)C; Abu = CC[C@H](N)C(=O)O; Sar = CNCC(=O)O

Consider `C/C=C/C[C@@H](C)[C@@H](O)[C@H]1C(=O)N[C@@H](CC)C(=O)N(C)CC(=O)N(C)[C@@H](CC(C)C)C(=S)N[C@@H](C(C)C)C(=O)N(C)[C@@H](CC(C)C)C(=O)N[C@@H](C)C(=O)N[C@H](C)C(=O)N(C)[C@@H](CC(C)C)C(=O)N(C)[C@@H](CC(C)C)C(=O)N(C)[C@@H](C(C)C)C(=O)N1C`, for which the result in assay [1], in assay [2] and in assay [3] was Active. For the same molecule, the inhibition result in assay [4] is “Active”.

A word on the Kd: it is the equilibrium constant for the complex coming apart. `C/C=C/C[C@@H](C)[C@@H](O)[C@H]1C(=O)N[C@@H](CC)C(=O)N(C)CC(=O)N(C)[C@@H](CC(C)C)C(=O)N[C@@H](C(C)C)C(=O)N(C)[C@@H](CC(C)C)C(=O)N[C@@H](C)C(=S)N[C@H](C)C(=O)N(C)[C@@H](CC(C)C)C(=O)N(C)[C@@H](CC(C)C)C(=O)N(C)[C@@H](C(C)C)C(=O)N1C` (HELM PEPTIDE1{[Abu].[Sar].[meL].V.[meL].[C[C@H](N[*:1])C(=S)N[C@H](C)C(=O)[*:2]].[meL].[meL].[meV].[C/C=C/C[C@@H](C)[C@@H](O)[C@@H](C(=O)[*:2])N(C)[*:1]]}$PEPTIDE1,PEPTIDE1,1:R1-10:R2$$$V2.0): the K in assay [5] is 6.32 ×10⁻² /s; in assay [6], 8.34 ×10⁶ /M/s. Moreover, the result in assay [1], in assay [2] and in assay [3] was Active. In assay [7], this molecule gave an equilibrium dissociation constant (Kd) of 8.2 nM. For the same molecule, in assay [4], the inhibition entry was “Active”.

Take `C/C=C/C[C@@H](C)[C@@H](O)[C@H]1C(=O)N[C@@H](CC)C(=O)N(C)CC(=O)N(C)[C@@H](CC(C)C)C(=S)N[C@@H](C(C)C)C(=O)N(C)[C@@H](CC(C)C)C(=O)N[C@@H](C)C(=S)N[C@H](C)C(=O)N(C)[C@@H](CC(C)C)C(=O)N(C)[C@@H](CC(C)C)C(=O)N(C)[C@@H](C(C)C)C(=O)N1C` (cyclo([Abu][Sar][X1][NMeL][AlaΨ(CSNH)dAla][NMeL][NMeL][NMeV][MeBmt])): the outcome in assay [1], in assay [2] and in assay [3] was Active. Further, the inhibition entry in assay [4] is “Active”.
